Reference: patent US11919858B2, “Aminonapthoquinone compounds and pharmaceutical composition for blocking ubiquitination-proteasome system in diseases” (Calgent Biotechnology Co., Ltd., priority 2015, dated 2024)
pKd: −log10 of the molar value.

Tests used:
[1] = tested on: adjuvant-induced arthritis (AIA); test: Adjuvant-induced arthritis (AIA) model; format: in vivo, Lewis rats
Experimental: In vivo adjuvant-induced arthritis (AIA) model. Five-week-old male Lewis rats were obtained from the National Laboratory Animal Center (Taipei, Taiwan). Complete Freund's adjuvant (CFA) was prepared by suspending heat-killed Mycobacterium butyricum (Difco) in mineral oil at 3 mg/mL. CFA-induced arthritis was induced by intradermal injection of 100 μL, of the CFA emulsion into the base of the right hind paw on day 0. […] On days 0, 2, 6, 9, 13, 17, and 21, the animals were weighed and both hind paw volumes measured using a digital plethysmometer (Diagnostic & Research Instruments Co. Ltd, Taipei, Taiwan). On day 21, micro-computed tomography (micro-CT) of the paws was performed by the Core Facilities Center of the National Research Program for Biopharmaceuticals using an in vivo micro-CT scanner (Skyscan 1176, Bruker Corp., Kontich, Belgium) at 18 μm resolution and 180° scanning with a rotation step of 0.8o per image, 300 msec integration time, 70 keV photon energy, and 350 μA current.
Quantification of volumetric bone mineral density (BMD) and bone volume (BV) was performed in a defined bone area ranging 12 mm from tarsals to the end of the calcaneus. The bone mineral content (BMC) was described by the product of BV and BMD.

ITCH = ITCH (Homo sapiens, UniProt Q96J02); test: Blocking of ITCH self-ubiquitination, in vitro assay; format: biochemical; settings: FIG. 1
From the text: MPT0L056 of the invention was used to test the blocking of ITCH self-ubiquitination. […] [Reference for in vitro assay: Scialpi F, Malatesta M, Peschiaroli A, Rossi M, Melino G, and Bernassola F. Itch self-polyubiquitylation occurs through lysine-63 linkages. Biochem Pharmacol. 2008 Dec. 1; 76(11):1515-21. Reference for in vivo assay: Chang L, Kamata H, Solinas G, Luo J L, Maeda S, Venuprasad K, Liu Y C, and Karin M. The E3 ubiquitin ligase itch couples JNK activation to TNFalpha-induced cell death by inducing c-FLIP(L) turnover. Cell. 2006 Feb. 10; 124(3):601-131

ROCK2 = ROCK2 (Homo sapiens, UniProt O75116); test: Protein kinase assay (Kinome assay); format: binding
From the text: (§1) The compounds of the invention were subjected to protein kinase assay.

DYRK1B = DYRK1B (Homo sapiens, UniProt Q9Y463); test: Protein kinase assay (Kinome assay); format: binding
From the text: as §1

CSNK1D = CSNK1D (Homo sapiens, UniProt P48730); test: Protein kinase assay (Kinome assay); format: binding
From the text: as §1

RIOK2 = RIOK2 (Homo sapiens, UniProt Q9BVS4); test: Protein kinase assay (Kinome assay); format: binding
From the text: as §1

PCTK1 = PCTK1 (Homo sapiens, UniProt Q00536); test: Protein kinase assay (Kinome assay); format: binding
From the text: as §1

JNK1 = JNK1 (Homo sapiens, UniProt P45983); test: Protein kinase assay (Kinome assay); format: binding
From the text: as §1

JNK3 = JNK3 (Homo sapiens, UniProt P53779); test: Protein kinase assay (Kinome assay); format: binding
From the text: as §1

OVCAR4 = test: Growth inhibition assay; format: cell-based; settings: Homo sapiens, OVCAR-4; OVCAR4 (Ovarian cancer), 48 hours
Experimental: (§2) Cells were seeded in 96-well plastic plates and exposed to MPT0L056 for 48 hours. Cell viability was assessed using the 3-(4,5-dimethylthiazol-2-yl)-2,5-diphenyltetrazolium bromide assay. Growth inhibition was expressed as the percentage of surviving cells in drug-treated versus DMSO-treated control cells.

SK-MEL-5 = test: Growth inhibition assay; format: cell-based; settings: Homo sapiens; SK-MEL-5 (Melanoma), 48 hours
Experimental: as §2

HepG2 = test: Growth inhibition assay; format: cell-based; settings: Homo sapiens; HepG2 (Liver cancer), 48 hours
Experimental: as §2

A-498 = test: Growth inhibition assay; format: cell-based; settings: Homo sapiens, A498; A-498 (Kidney cancer), 48 hours
Experimental: as §2

ACHN = test: Growth inhibition assay; format: cell-based; settings: Homo sapiens; ACHN (Kidney cancer), 48 hours
Experimental: as §2

H33HJ-JA1 = test: Growth inhibition assay; format: cell-based; settings: H33HJ-JA1 (T cell lymphoma), 48 hours
Experimental: as §2

Ramos = test: Growth inhibition assay; format: cell-based; settings: Homo sapiens; Ramos (B cell leukemia), 48 hours
Experimental: as §2

Hepatocytes = test: Growth inhibition assay; format: cell-based; settings: Hepatocyte; Hepatocytes (Normal cells), 48 hours
Experimental: as §2

PC-3 = test: Growth inhibition assay; format: cell-based; settings: Homo sapiens; PC-3 (Prostate cancer), 48 hours
Experimental: as §2

AsPC1 = test: Growth inhibition assay; format: cell-based; settings: Homo sapiens; AsPC1 (Pancreas cancer), 48 hours
Experimental: as §2

REH = test: Growth inhibition assay; format: cell-based; settings: Homo sapiens; REH (B cell leukemia), 48 hours
Experimental: as §2

NCI-H460 = test: Growth inhibition assay; format: cell-based; settings: Homo sapiens; NCI-H460 (Lung cancer), 48 hours
Experimental: as §2

K562 = test: Growth inhibition assay; format: cell-based; settings: Homo sapiens; K562 (Leukemia), 48 hours
Experimental: as §2

HT-29 = test: Growth inhibition assay; format: cell-based; settings: Homo sapiens; HT-29 (Colorectal cancer), 48 hours
Experimental: as §2

NHDF = test: Growth inhibition assay; format: cell-based; settings: Homo sapiens; NHDF (Normal cells), 48 hours
Experimental: as §2

A549 = test: Growth inhibition assay; format: cell-based; settings: Homo sapiens; A549 (Lung cancer), 48 hours
Experimental: as §2

MCF-7 = test: Growth inhibition assay; format: cell-based; settings: Homo sapiens, MCF7; MCF-7 (Breast cancer), 48 hours
Experimental: as §2

OVCAR3 = test: Growth inhibition assay; format: cell-based; settings: Homo sapiens, OVCAR-3; OVCAR3 (Ovarian cancer), 48 hours
Experimental: as §2

U-87 MG = test: Growth inhibition assay; format: cell-based; settings: Homo sapiens; U-87 MG (Brain cancer), 48 hours
Experimental: as §2

MOLT4 = test: Growth inhibition assay; format: cell-based; settings: Homo sapiens, MOLT-4; MOLT4 (Leukemia), 48 hours
Experimental: as §2

Chain of ROCK2 (O75116 whole entry, species assumed): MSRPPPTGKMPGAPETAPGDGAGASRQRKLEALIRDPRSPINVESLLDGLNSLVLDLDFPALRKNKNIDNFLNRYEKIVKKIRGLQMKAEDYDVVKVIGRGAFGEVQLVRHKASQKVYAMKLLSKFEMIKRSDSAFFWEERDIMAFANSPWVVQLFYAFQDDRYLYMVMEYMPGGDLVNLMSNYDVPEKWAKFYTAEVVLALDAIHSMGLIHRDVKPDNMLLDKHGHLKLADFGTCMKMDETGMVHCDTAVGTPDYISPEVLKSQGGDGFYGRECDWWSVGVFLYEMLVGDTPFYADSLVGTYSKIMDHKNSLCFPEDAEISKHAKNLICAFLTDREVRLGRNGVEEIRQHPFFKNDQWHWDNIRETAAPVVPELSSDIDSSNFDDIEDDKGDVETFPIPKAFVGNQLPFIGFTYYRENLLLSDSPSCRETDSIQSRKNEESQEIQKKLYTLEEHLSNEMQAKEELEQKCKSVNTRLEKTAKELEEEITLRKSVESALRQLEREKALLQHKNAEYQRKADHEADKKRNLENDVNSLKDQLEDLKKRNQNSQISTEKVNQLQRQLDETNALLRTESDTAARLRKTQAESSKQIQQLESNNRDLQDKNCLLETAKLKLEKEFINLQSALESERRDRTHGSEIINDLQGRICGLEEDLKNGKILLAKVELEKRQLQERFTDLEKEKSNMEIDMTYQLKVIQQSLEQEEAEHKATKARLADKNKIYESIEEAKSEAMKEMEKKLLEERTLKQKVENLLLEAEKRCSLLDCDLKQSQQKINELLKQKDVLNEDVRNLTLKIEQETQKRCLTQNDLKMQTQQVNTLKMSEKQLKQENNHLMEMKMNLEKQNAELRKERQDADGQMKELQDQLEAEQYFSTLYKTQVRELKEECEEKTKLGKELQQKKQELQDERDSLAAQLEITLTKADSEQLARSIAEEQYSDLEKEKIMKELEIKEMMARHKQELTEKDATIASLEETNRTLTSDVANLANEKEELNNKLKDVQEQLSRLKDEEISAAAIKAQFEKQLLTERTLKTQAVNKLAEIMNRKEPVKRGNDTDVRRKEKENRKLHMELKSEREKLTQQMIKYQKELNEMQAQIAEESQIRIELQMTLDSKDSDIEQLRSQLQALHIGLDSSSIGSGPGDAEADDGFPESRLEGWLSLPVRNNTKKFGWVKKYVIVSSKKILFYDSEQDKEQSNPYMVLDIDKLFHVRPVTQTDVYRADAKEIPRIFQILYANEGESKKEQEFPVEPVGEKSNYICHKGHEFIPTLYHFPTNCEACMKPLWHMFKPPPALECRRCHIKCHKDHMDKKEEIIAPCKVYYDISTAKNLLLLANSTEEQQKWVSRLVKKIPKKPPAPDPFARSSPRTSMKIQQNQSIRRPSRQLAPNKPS
Chain of RIOK2 (Q9BVS4 whole entry, species assumed): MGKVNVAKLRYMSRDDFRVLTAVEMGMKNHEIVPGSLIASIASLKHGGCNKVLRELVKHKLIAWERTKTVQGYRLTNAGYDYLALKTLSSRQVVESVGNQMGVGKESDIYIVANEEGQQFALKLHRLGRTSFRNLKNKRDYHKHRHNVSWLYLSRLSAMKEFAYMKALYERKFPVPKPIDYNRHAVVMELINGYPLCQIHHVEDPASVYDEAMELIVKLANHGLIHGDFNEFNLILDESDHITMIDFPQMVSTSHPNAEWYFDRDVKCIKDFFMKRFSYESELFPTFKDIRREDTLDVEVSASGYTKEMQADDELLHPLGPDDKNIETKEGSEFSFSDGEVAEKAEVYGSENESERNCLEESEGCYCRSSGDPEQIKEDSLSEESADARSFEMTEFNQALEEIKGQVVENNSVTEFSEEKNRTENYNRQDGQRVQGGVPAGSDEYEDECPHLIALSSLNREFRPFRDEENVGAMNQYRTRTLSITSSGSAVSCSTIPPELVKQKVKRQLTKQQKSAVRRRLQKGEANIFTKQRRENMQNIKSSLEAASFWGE
Chain of JNK3 (P53779 whole entry, species assumed): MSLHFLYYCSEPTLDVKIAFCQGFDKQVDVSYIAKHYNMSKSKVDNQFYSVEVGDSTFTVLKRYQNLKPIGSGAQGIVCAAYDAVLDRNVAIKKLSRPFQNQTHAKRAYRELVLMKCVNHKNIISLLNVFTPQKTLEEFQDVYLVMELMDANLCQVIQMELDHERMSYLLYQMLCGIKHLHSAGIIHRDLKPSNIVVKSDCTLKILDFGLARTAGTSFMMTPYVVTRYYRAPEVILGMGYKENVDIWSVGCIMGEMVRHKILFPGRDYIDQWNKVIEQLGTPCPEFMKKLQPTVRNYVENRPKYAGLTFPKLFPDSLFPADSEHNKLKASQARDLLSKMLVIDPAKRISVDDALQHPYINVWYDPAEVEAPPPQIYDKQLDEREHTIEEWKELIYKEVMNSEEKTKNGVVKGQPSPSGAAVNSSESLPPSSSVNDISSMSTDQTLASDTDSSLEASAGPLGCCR
Chain of CSNK1D (P48730 whole entry, species assumed): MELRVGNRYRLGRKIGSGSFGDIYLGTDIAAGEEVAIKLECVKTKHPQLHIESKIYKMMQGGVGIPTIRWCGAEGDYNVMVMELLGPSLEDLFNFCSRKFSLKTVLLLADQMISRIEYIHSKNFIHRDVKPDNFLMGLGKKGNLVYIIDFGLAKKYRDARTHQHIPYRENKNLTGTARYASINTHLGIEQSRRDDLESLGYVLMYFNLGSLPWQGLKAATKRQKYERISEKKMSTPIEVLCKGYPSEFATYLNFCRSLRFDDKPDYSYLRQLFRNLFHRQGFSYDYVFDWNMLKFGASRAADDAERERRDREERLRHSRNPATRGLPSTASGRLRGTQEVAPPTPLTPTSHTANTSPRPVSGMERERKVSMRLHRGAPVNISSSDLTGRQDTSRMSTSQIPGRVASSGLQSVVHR
Chain of PCTK1 (Q00536 whole entry, species assumed): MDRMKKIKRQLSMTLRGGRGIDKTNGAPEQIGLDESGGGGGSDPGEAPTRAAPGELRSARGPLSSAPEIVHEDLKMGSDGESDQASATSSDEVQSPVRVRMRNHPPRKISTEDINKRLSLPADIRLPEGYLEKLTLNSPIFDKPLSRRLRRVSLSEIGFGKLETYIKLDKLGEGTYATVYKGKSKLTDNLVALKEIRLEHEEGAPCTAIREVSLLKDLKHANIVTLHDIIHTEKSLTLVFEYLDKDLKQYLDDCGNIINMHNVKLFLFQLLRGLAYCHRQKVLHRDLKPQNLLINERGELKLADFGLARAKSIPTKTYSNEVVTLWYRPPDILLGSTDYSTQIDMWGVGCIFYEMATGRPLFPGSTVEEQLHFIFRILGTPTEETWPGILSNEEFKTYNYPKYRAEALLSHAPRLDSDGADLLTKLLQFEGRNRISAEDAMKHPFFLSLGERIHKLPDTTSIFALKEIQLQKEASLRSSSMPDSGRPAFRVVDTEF
Chain of JNK1 (P45983 whole entry, species assumed): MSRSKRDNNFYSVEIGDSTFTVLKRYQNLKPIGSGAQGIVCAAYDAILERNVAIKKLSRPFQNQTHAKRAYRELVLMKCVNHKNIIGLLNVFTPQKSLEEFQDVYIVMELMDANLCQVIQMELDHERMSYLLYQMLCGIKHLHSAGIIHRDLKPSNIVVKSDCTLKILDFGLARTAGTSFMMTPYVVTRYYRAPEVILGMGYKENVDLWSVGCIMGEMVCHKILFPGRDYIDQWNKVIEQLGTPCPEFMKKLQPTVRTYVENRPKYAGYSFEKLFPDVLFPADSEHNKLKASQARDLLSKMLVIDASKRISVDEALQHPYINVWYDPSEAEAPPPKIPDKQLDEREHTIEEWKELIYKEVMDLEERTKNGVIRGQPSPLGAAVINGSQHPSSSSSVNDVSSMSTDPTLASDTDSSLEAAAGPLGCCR
Chain of ITCH (Q96J02 whole entry, species assumed): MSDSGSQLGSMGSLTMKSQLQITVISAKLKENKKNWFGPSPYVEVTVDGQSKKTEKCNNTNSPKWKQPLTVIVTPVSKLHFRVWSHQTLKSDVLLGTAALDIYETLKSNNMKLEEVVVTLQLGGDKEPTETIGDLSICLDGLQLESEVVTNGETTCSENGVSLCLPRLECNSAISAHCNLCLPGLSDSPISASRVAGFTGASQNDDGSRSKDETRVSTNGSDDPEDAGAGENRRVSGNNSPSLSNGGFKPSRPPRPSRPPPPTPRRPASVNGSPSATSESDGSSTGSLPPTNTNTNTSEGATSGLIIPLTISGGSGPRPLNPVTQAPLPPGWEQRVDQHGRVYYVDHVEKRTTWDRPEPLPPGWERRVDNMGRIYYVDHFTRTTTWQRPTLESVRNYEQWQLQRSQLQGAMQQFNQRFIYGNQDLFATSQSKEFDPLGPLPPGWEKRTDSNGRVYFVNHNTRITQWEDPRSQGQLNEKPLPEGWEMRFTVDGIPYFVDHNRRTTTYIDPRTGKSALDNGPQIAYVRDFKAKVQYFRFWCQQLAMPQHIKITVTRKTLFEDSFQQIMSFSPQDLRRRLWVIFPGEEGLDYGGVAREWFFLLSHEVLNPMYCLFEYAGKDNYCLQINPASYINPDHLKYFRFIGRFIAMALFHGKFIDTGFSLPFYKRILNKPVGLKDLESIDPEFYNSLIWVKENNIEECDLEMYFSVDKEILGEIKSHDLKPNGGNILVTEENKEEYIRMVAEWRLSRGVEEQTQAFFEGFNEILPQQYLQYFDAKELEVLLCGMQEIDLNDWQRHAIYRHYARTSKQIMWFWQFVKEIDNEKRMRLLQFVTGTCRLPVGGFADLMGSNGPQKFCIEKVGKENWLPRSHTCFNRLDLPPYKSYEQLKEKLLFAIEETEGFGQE

O=C(Nc1ccncc1)c1ccc(CNC2=C(Cl)C(=O)c3ccccc3C2=O)cc1 [MPT0L056]
bone mineral content (BMC) loss ([1]; AIA model, FIG. 17): can prevent
bone mineral density (BMD) loss ([1]; AIA model, FIG. 17): can prevent
development of arthritis (micro-CT) ([1]; MPT0L056 25 mg/kg, po, qd, day 2 to day 21, FIG. 15): inhibits development of arthritis
paw swelling ([1]; MPT0L056 25 mg/kg, po, qd, day 2 to day 21, FIG. 16): significantly reduces paw swelling
blocking of ITCH self-ubiquitination (Lys-dependent) (ITCH): blocks ITCH self-ubiquitnation (Lys-dependent) efficiently
pKd (ROCK2): 6.24
pKd (DYRK1B): 5.85
pKd (CSNK1D): 5.70
pKd (RIOK2): 5.18
pKd (PCTK1): < 5.00
pKd (JNK1): 5.38
pKd (JNK3): 6.37
GI50 (OVCAR4): 1.4 µM
GI50 (SK-MEL-5): 0.21 µM
GI50 (HepG2): 3.6 µM
GI50 (A-498): 3.5 µM
GI50 (ACHN): 2.7 µM
GI50 (H33HJ-JA1): 1.8 µM
GI50 (Ramos): 0.89 µM
GI50 (Hepatocytes): 30 µM
GI50 (PC-3): 2.5 µM
GI50 (AsPC1): 4.6 µM
GI50 (REH): 2.8 µM
GI50 (NCI-H460): 2.9 µM
GI50 (K562): 1.7 µM
GI50 (HT-29): 3.8 µM
GI50 (NHDF): 6.3 µM
GI50 (A549): > 5 µM
GI50 (MCF-7): 0.9 µM
GI50 (OVCAR3): 1.9 µM
GI50 (U-87 MG): 2.5 µM
GI50 (MOLT4): 4 µM
